What was measured:
[1] = test system: CHO; assay: Inhibition of senktide-evoked increases in intracellular calcium levels in CHO cells measured using the fluorescent indicator Fura 2; assay type: functional, Cricetulus griseus
[2] = target: Substance-P receptor (Homo sapiens, UniProt P25103); assay: Compound was tested for binding affinity against human NK1 receptor
[3] = target: T1, Neuromedin-K receptor (Homo sapiens, UniProt P29371); assay: Compound was tested for binding affinity against human Tachykinin receptor 3 in CHO cells; assay type: cell-based
T1 sequence (P29371 whole entry): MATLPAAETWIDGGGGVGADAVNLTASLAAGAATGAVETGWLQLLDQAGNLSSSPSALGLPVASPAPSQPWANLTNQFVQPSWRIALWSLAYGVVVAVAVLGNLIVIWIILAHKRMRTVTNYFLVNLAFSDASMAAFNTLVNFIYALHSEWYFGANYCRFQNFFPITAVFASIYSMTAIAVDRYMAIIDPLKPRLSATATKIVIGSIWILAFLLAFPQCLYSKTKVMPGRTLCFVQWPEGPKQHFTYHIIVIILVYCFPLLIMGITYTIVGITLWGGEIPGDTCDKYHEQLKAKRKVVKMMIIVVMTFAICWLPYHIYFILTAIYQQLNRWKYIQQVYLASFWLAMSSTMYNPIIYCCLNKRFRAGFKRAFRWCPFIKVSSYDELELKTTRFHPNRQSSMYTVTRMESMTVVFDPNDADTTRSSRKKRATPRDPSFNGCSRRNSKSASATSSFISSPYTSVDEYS

Substance-P receptor, sequence (P25103 whole entry): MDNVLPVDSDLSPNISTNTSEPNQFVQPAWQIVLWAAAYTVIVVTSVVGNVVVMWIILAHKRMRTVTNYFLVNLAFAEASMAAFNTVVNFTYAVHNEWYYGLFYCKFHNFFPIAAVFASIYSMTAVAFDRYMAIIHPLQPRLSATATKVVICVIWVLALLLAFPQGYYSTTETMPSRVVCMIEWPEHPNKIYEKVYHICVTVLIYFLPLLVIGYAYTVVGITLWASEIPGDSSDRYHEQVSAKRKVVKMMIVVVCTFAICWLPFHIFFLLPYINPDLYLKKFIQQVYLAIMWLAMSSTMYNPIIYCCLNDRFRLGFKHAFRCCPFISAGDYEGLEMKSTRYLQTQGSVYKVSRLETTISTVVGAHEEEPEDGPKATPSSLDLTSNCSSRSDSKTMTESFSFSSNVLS

`CC(C)[C@H](OC(=O)N[C@](C)(Cc1ccccc1F)C(=O)NCCCCCCCNC(N)=O)c1ccccc1` showed a Ke [1] of 2.2 nM.

`CC(NC(=O)[C@@](C)(Cc1cc2ccccc2[nH]1)NC(=O)OC(c1ccccc1)C(C)C)c1ccccc1` (stereo partly drawn) was tested, and the IC50 [2] was 1400 nM and the IC50 [3] was 1200 nM.
